The test system of experiment [1] is N. gonorrhoeae ATCC 49226. Nature of the experiment: Test for evaluating antibacterial activity (N. gonorrhoeae), broth microdilution MIC. Format: cell-based. Particulars: Neisseria gonorrhoeae, ATCC49226; 35° C., 24 hours, gonococcal broth. The method, then:
Minimum inhibitory concentration (MIC) was measured using the broth microdilution method described below in accordance with a modification of the method of Geers et al. (Antimicrob. Agents. Chemother. (1989), 33, 233-234).
After sterilization, BD. Difco supplement C was added to give a final concentration of 1%, whereby a gonococcal broth was prepared.
Bacterial cells under test were cultured overnight on a chocolate II agar medium, scraped off and suspended at a concentration equivalent to McFarland 0.5 turbidity; the suspension thus obtained was diluted 5 folds to give a liquid inoculum. The inoculum (0.005 mL) was inoculated on a gonococcal broth containing the analyte compound and cultured at 35° C. for 24 hours. A minimum drug concentration at which no bacterial growth was macroscopically visible was designated MIC.

A further experiment addresses T1, E. coli DNA gyrase (Escherichia coli, UniProt P0AES6).
T1 construct: made in house; host or cells: E. coli BL21 (DE3)
The experiment can be described thus: Test for evaluating the activity of inhibiting E. coli DNA gyrase enzyme (Method 2, supercoiling, recombinant gyrA/gyrB complex). Type of experiment: biochemical. In short, it runs like this:
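Recombinant E. coli gyrA/gyrB complex (His-tagged, BL21(DE3)-expressed, Ni-NTA purified; 0.135 nmol/mL final) supercoiled relaxed pBR322 (1 ng/μL) with 0.5 mmol/L ATP in pH 8.0 Tris buffer, 60 min at room temperature. H19 stopped the reaction; supercoiled/relaxed ratio read at 485/535 nm, inhibition curves built from varying compound concentrations.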

A further experiment relates to E. Coli ATCC 25922. Nature of the experiment: Test for evaluating antibacterial activity (E. coli), broth microdilution MIC. Format: cell-based. Particulars: Escherichia coli, ATCC25922; 35° C., 18 hours, cation-adjusted Mueller-Hinton medium. The method, boiled down:
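Broth microdilution per modified CLSI method in cation-adjusted Mueller-Hinton medium. Inoculum from overnight heart infusion agar growth, McFarland 0.5 suspension diluted 10-fold; incubation 35° C for 18 hours. MIC taken as lowest drug concentration with no visible growth.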
(In general: Broth dilution looks for growth in wells or tubes with falling amounts of substance.)

[2] abbreviates: Method 2, read-out: E. Coli Gyrase supercoiling IC50.

From patent publication US20210070747A1, “2(1H)-QUINOLINONE DERIVATIVE” (priority 2017, published 2021) come the findings set out here.

Values after ≈ are worked out from the molar mass of the structure shown. Like-named read-outs stand apart in the source and are kept apart here. Some results are limits rather than exact numbers.

Take `CNc1cc(F)cc2cc(C(=O)Nc3ccc(NC(=O)NS(C)(=O)=O)cc3)c(=O)[nH]c12` [Example 154, 6-fluoro-N-(4-{[(methanesulfonyl)carbamoyl]amino}phenyl)-8-(methylamino)-2-oxo-1,2-dihydroquinoline-3-carboxamide]: the MIC in experiment [1] was 0.06 µg/mL (≈ 0.134 µM); in the experiment on E. Coli ATCC 25922 it was greater than 16 µg/mL. Moreover, the IC50 on E. coli DNA gyrase (setting [2]) is 9.78 nM.

As for `CNc1cccc2cc(C(=O)NCCc3nc(O)cc(O)n3)c(=O)[nH]c12` [Example 32, N-[2-(4,6-dihydroxy-pyrimidine-2-yl)ethyl]-8-(methylamino)-2-oxo-1,2-dihydroquinoline-3-carboxamide], the MIC in experiment [1] was greater than 4 µg/mL; with E. Coli ATCC 25922, greater than 64 µg/mL. The IC50 on E. coli DNA gyrase (setting [2]) stood at 25.3 nM.

For the compound `CNc1cc(F)cc2cc(C(=O)Nc3ccccc3CN(CC(=O)O)C3CCCCC3)c(=O)[nH]c12` [Example 103, N-cyclohexyl-N-[(2-{[6-fluoro-8-(methylamino)-2-oxo-1,2-dihydroquinoline-3-carbonyl]amino}phenyl)methyl]glycine], the MIC in experiment [1] was 4 µg/mL (≈ 8.32 µM); in the experiment on E. Coli ATCC 25922, greater than 64 µg/mL. Further, the IC50 at E. coli DNA gyrase worked out at 12.1 nM.

For the compound `CNc1cc(F)cc2c(O)c(C(=O)Nc3ccc(C(=N)N)cc3)c(=O)[nH]c12` [Example 150, N-(4-Carbamimidoylphenyl)-6-fluoro-4-hydroxy-8-(methylamino)-2-oxo-1,2-dihydroquinoline-3-carboxamide], the figures for the MIC (in experiment [1]; in the experiment with E. Coli ATCC 25922) were 0.03 µg/mL (≈ 0.0812 µM) and greater than 16 µg/mL, respectively. Moreover, the IC50 at E. coli DNA gyrase (setting [2]) was determined as 89.3 nM.

Turning to `CCc1cccc2cc(C(=O)Nc3ccc(C(=O)O)cc3)c(=O)[nH]c12` [Example 161, 4-[(8-ethyl-2-oxo-1,2-dihydroquinoline-3-carbonyl)amino]benzoic acid], the MIC in experiment [1] was greater than 4 µg/mL; in the experiment with E. Coli ATCC 25922, greater than 32 µg/mL. Moreover, at E. coli DNA gyrase (setting [2]), the IC50 came out at 2230 nM.

For the compound `CNc1cc(F)cc2cc(CNc3ccc(C(=O)O)cc3)c(=O)[nH]c12` [Example 163, 4-([[6-Fluoro-8-(methylamino)-2-oxo-1,2-dihydroquinoline-3-yl]methyl]amino)benzoic Acid], the MIC in experiment [1] is greater than 1 µg/mL; against E. Coli ATCC 25922, greater than 32 µg/mL. In addition, the IC50 at E. coli DNA gyrase (setting [2]) worked out at 2100 nM.

As for `CNc1cc(F)cc2c(O)c(C(=O)Nc3ccccc3)c(=O)[nH]c12` [Example 129, 6-fluoro-4-hydroxy-8-(methylamino)-2-oxo-N-phenyl-1,2-dihydroquinoline-3-carboxamide], the MIC in experiment [1] is 1 µg/mL (≈ 3.06 µM); with E. Coli ATCC 25922 it was greater than 16 µg/mL. Moreover, the IC50 on E. coli DNA gyrase (setting [2]) was found to be 387 nM.

As to `CCc1cc(C(=O)O)ccc1NC(=O)c1cc2cc(F)cc(NC)c2[nH]c1=O` [Example 93, 3-ethyl-4-{[6-fluoro-8-(methylamino)-2-oxo-1,2-dihydraquinoline-3-carbonyl]amino} benzoic acid], the MIC in experiment [1] is 0.25 µg/mL (≈ 0.652 µM); in the experiment on E. Coli ATCC 25922, greater than 2 µg/mL. Besides, the IC50 at E. coli DNA gyrase (setting [2]) is 31.8 nM.

Turning to `CNc1cc(F)cc2cc(C(=O)Oc3ccc(C(=O)O)cc3)c(=O)[nH]c12` [Example 162, 4-{[6-fluoro-8-(methylamino)-2-oxo-1,2-dihydroquinoline-3-carbonyl]oxy}benzoic acid], the MIC in experiment [1] was greater than 1 µg/mL; in the experiment with E. Coli ATCC 25922, greater than 32 µg/mL. Further, the half-maximal inhibitory concentration (IC50) at E. coli DNA gyrase (setting [2]) turned out to be 3450 nM.

On to `CNc1cc(F)cc2cc(C(=O)Nc3ccc(CO)cc3CN(C)C3CCCCC3)c(=O)[nH]c12` [Example 122, N-[2-{[cyclohexyl(methyl)amino]methyl}-4-(hydroxymethyl)phenyl]-6-fluoro-8-(methylamino)-2-oxo-1,2-dihydroquinoline-3-carboxamide], for which the values for the MIC (in experiment [1]; with E. Coli ATCC 25922) were 0.5 µg/mL (≈ 1.07 µM) and 16 µg/mL (≈ 34.3 µM), respectively. For the same compound, at E. coli DNA gyrase (setting [2]), the IC50 worked out at 1.92 nM.

Turning to `CNc1cc(F)cc2cc(C(=O)Nc3ccc(S(C)(=N)=O)cc3)c(=O)[nH]c12` (stereo not drawn) [Example 151, 6-Fluoro-N-[4-(S-methanesulfonimidoyl)phenyl]-8-(methylamino)-2-oxo-1,2-dihydroquinoline-3-carboxamide], the MIC in experiment [1] is 0.5 µg/mL (≈ 1.29 µM); against E. Coli ATCC 25922, greater than 16 µg/mL. At E. coli DNA gyrase, the IC50 turned out to be 21.4 nM.

As for `CNc1cc(F)cc2cc(C(=O)Nc3ccc(C(=O)O)cc3CN(CCN)C3CCCCC3)c(=O)[nH]c12.O=C(O)C(F)(F)F` [Example 110, 3-{[(2-aminoethyl)(cyclohexyl)amino]methyl}-4-{[6-fluoro-8-(methylamino)-2-oxo-1,2-dihydroquinoline-3-carbonyl]amino}benzoic acid-trifluoroacetate], the MIC in experiment [1] was greater than 1 µg/mL; with E. Coli ATCC 25922, greater than 64 µg/mL. Further, the IC50 at E. coli DNA gyrase turned out to be 3.68 nM.

As to `CNc1cccc2cc(C(=O)Nc3cnc(CO)nc3)c(=O)[nH]c12` [Example 37, N-[2-(hydroxymethyl)pyrimidine-5-yl]-8-(methylamino)-2-oxo-1,2-dihydroquinoline-3-carboxamide], the MIC in experiment [1] is 1 µg/mL (≈ 3.07 µM); with E. Coli ATCC 25922 it was greater than 4 µg/mL. The IC50 at E. coli DNA gyrase (setting [2]) is 9.97 nM.

For `CNc1cc(F)cc2c(O)c(C(=O)Nc3ccc(C(=O)O)cc3CN3CCCC3)c(=O)[nH]c12.O=CO` [Example 157, 4-{[6-fluoro-4-hydroxy-8-(methylamino)-2-oxo-1,2-dihydroquinoline-3-carbonyl]amino}-3-[(pyrrolidine-1-yl)methyl]benzoic acid-formate], the MIC was determined as 0.12 µg/mL in experiment [1] and 16 µg/mL against E. Coli ATCC 25922. Further, the IC50 on E. coli DNA gyrase is 5.61 nM.

In the case of `CNc1cc(F)cc2cc(C(=O)Nc3ccc(-c4noc(=O)[nH]4)cc3)c(=O)[nH]c12` [Example 144, 6-fluoro-8-(methylamino)-2-oxo-N-[4-(5-oxo-4,5-dihydro-1,2,4-oxadiazole-3-yl)phenyl]-1,2-dihydroquinoline-3-carboxamide], the MIC was 0.004 µg/mL (≈ 0.0101 µM) in experiment [1] and greater than 8 µg/mL against E. Coli ATCC 25922. The IC50 on E. coli DNA gyrase (setting [2]) was determined as 0.48 nM.

For the compound `CNc1cc(F)cc2cc(C(=O)Nc3cnccc3CO)c(=O)[nH]c12` [Example 91, 6-Fluoro-N-[4-(hydroxymethyl)pyridin-3-yl]-8-(methylamino)-2-oxo-1,2-dihydroquinoline-3-carboxamide], the MIC in experiment [1] was 1 µg/mL (≈ 2.92 µM); against E. Coli ATCC 25922 it was greater than 16 µg/mL. The IC50 on E. coli DNA gyrase (setting [2]) turned out to be 18.6 nM.

On to `CNc1cc(F)cc2cc(C(=O)Nc3c(C)cc(C(=O)O)cc3CN(C)C3CCCCC3)c(=O)[nH]c12` [Example 99, 3-{[cyclohexyl (methyl)amino]methyl}-4-{[6-fluoro-8-(methylamino)-2-oxo-1,2-dihydroquinoline-3-carbonyl]amino}-5-methylbenzoic acid], for which the MIC in experiment [1] worked out at 0.25 µg/mL (≈ 0.505 µM); in the experiment with E. Coli ATCC 25922, 64 µg/mL (≈ 129 µM). Besides, on E. coli DNA gyrase (setting [2]), the IC50 was 0.7 nM.

For `CNc1cncc2cc(C(=O)Nc3ccc(C(=O)O)cc3CN(C)C3CCCCC3)c(=O)[nH]c12` [Example 108, 3-[[Cyclohexyl(methyl)amino]methyl]-4-[[8-(methylamino)-2-oxo-1,2-dihydro-1,6-naphthyridine-3-carbonyl]amino]benzoic Acid], the MIC was greater than 1 µg/mL in experiment [1] and greater than 32 µg/mL against E. Coli ATCC 25922. For the same compound, the IC50 at E. coli DNA gyrase (setting [2]) stood at 6.05 nM.

For the compound `CNc1cc(F)cc2c(O)c(C(=O)Nc3ccc(C(=O)NS(=O)(=O)N(C)C)cc3CN3CCCCC3)c(=O)[nH]c12` [Example 164, N-{4-[(dimethyl-sulfamoyl)carbamoyl]-2-[(piperidine-1-yl)methyl]phenyl}-6-fluoro-4-hydroxy-8-(methylamino)-2-oxo-1,2-dihydroquinoline-3-carboxamide], the MIC worked out at 0.12 µg/mL (≈ 0.209 µM) in experiment [1] and 64 µg/mL (≈ 111 µM) in the experiment on E. Coli ATCC 25922. The IC50 on E. coli DNA gyrase (setting [2]) came to 4.44 nM.

`CNc1cc(F)cc2c(O)c(C(=O)Nc3ccc(C(=O)NS(C)(=O)=O)cc3)c(=O)[nH]c12` [Example 147, 6-Fluoro-4-hydroxy-N-[4-[(methanesulfonyl)carbamoyl]phenyl]-8-(methylamino)-2-oxo-1,2-dihydroquinoline-3-carboxamide]: the figures for the MIC (in experiment [1]; in the experiment with E. Coli ATCC 25922) were 0.008 µg/mL (≈ 0.0178 µM) and greater than 32 µg/mL, respectively. The IC50 at E. coli DNA gyrase (setting [2]) turned out to be 1.75 nM.

As for `O=C(O)c1ccc(NC(=O)c2cc3ccccc3[nH]c2=O)cc1` [Reference Example 1, 4-[(2-Oxo-1,2-dihydroquinoline-3-carbonyl)amino]benzoic Acid, reference compound], the minimum inhibitory concentration (MIC) in experiment [1] was greater than 1 µg/mL; in the experiment on E. Coli ATCC 25922 it was greater than 64 µg/mL. The IC50 at E. coli DNA gyrase (setting [2]) came to 7010 nM.

For `CNc1cc(F)cc2c(O)c(C(=O)Nc3ccc(C(=O)O)cc3CN3CCOCC3)c(=O)[nH]c12` [Example 155, 4-[[6-Fluoro-4-hydroxy-8-(methylamino)-2-oxo-1,2-dihydroquinoline-3-carbonyl]amino]-3-[(morpholin-4-yl)methyl]benzoic Acid], the MIC in experiment [1] was 0.015 µg/mL (≈ 0.0319 µM); against E. Coli ATCC 25922, greater than 32 µg/mL. Also, the IC50 at E. coli DNA gyrase (setting [2]) worked out at 109 nM.

As for `CNc1cc(F)cc2c(NCCCN)c(C(=O)Nc3ccc(C(=O)O)cc3)c(=O)[nH]c12.O=CO` [Example 132, 4-({4-[(3-aminopropyl)amino]-6-fluoro-8-(methylamino)-2-oxo-1,2-dihydroquinoline-3-carbonyl}amino)benzoic acid-formate], the MIC in experiment [1] is 0.25 µg/mL; against E. Coli ATCC 25922, greater than 8 µg/mL. In addition, the IC50 on E. coli DNA gyrase was 0.52 nM.

What is called MIC is the smallest concentration in the dilution series that meets the test's criterion for growth inhibition. Low readings indicate greater potency, high ones weaker potency. Broadly, the IC50 is the point on the concentration scale where inhibition reaches its midpoint.
